Test results as given in ChEMBL document CHEMBL2057088 (Bioorg Med Chem, 2012).

Tests used:
Rattus norvegicus [1] = assay: Ex-vivo inhibition of DPP4 in po dosed Wistar rat plasma up to 24 hrs by fluorometry; format: functional, organism-based
Rattus norvegicus [2] = species: Rattus norvegicus; assay: animal or person; conditions: Wistar, Plasma, po, 24 h, read-out: INH

O=C([C@@H]1C[C@H](N2CCN(c3cc(C(F)(F)F)nc4ccccc34)CC2)CN1)N1CCSC1
inhibition (Rattus norvegicus [1]): Dose-dependent effect
inhibition in vivo at 3 µmol/kg (Rattus norvegicus [2]): > 40%
